#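 Where inhibition never reached the appropriate level, the endpoint shown equals the highest concentration tested. Otherwise, values were interpolated linearly from a five-concentration, 48-hour dose response in 96-well plates. Abbreviation: GI50, concentration required for 50% inhibition of growth. At the TGI there is no net growth.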
# Experiments:
# Experiment in all cases: NCI-60 cell line screen, 48 h
# A498 renal = tested on: A498 renal
# ACHN renal = tested on: ACHN renal
# EKVX NSCLC = tested on: EKVX NSCLC
# HCC-2998 colon = tested on: HCC-2998 colon
# HL-60(TB) leukemia = tested on: HL-60(TB) leukemia
# HOP-62 NSCLC = tested on: HOP-62 NSCLC
# HS 578T breast = tested on: HS 578T breast
# SW-620 colon = tested on: SW-620 colon
# UACC-257 melanoma = tested on: UACC-257 melanoma
# UACC-62 melanoma = tested on: UACC-62 melanoma
Compound,GI50 (A498 renal),TGI (A498 renal),GI50 (ACHN renal),TGI (ACHN renal),GI50 (EKVX NSCLC),TGI (EKVX NSCLC),GI50 (HCC-2998 colon),TGI (HCC-2998 colon),GI50 (HL-60(TB) leukemia),TGI (HL-60(TB) leukemia),GI50 (HOP-62 NSCLC),TGI (HOP-62 NSCLC),GI50 (HS 578T breast),TGI (HS 578T breast),GI50 (SW-620 colon),TGI (SW-620 colon),GI50 (UACC-257 melanoma),TGI (UACC-257 melanoma),GI50 (UACC-62 melanoma),TGI (UACC-62 melanoma)
Nc1nc2c(nnn2C2OC(CO)C(O)C2O)c(=O)[nH]1 (stereo not drawn),1.86 µM,> 30.2 µM,0.298 µM,> 100 µM,14.1 µM,> 100 µM,0.854 µM,> 27.3 µM,0.546 µM,> 100 µM,3.2 µM,> 100 µM,12 µM,> 100 µM,1.18 µM,> 100 µM,7.29 µM,> 100 µM,1.14 µM,12.9 µM
CO[C@]12C=C/C(=C(/C(=O)OCc3cccnc3)C(=O)CCCCCCCC[C@@]3(OC)C=C/C(=C(/C(=O)OCc4cccnc4)C(=O)CCCCCCCC1)O3)O2,2.04 µM,6.57 µM,1.3 µM,> 50 µM,1.97 µM,> 50 µM,0.979 µM,1.84 µM,1.37 µM,4.25 µM,,,2.08 µM,> 50 µM,1.62 µM,6.75 µM,2.01 µM,20.1 µM,,
COc1ccc(-c2nc(Nc3ccc(-c4nc5ccccc5[nH]4)cc3)nc(N3CCOCC3)n2)cc1,1.52 µM,3.57 µM,2.55 µM,> 100 µM,2.6 µM,> 100 µM,3.09 µM,> 100 µM,1.94 µM,5.67 µM,2.11 µM,5.3 µM,1.76 µM,6.96 µM,2.19 µM,4.8 µM,,,,
CCOC(=O)c1ccc2c(c1)nc(/C=C/c1ccc(Cl)cc1)n2-c1cc(C(C)(C)C)[nH]n1,3.03 µM,41.7 µM,2.03 µM,5.75 µM,,,> 100 µM,> 100 µM,39.9 µM,> 100 µM,5.24 µM,28.8 µM,3.6 µM,61.8 µM,12.8 µM,> 100 µM,6.84 µM,> 100 µM,1.47 µM,4.79 µM
CCN(Cc1ccccc1Cl)c1ccc(CO)c(Cl)c1,< 0.0219 µM,0.0672 µM,13.7 µM,27.3 µM,,,11.9 µM,25.4 µM,13.9 µM,33.8 µM,2.46 µM,16.1 µM,16 µM,38.7 µM,1.61 µM,16.8 µM,0.094 µM,0.461 µM,0.152 µM,1.63 µM
CCCCCCC/C=C/[C@H]1O[C@]2(O)C(=O)C=C3C[C@@H](O[C@@H]4O[C@H](CO)[C@@H](O)C(O)[C@@H]4O)C[C@@H]3[C@H]2C=C1C (stereo partly drawn),4.41 µM,9.13 µM,1.13 µM,4.28 µM,4.82 µM,11 µM,4.93 µM,9.82 µM,0.812 µM,4.05 µM,,,5.5 µM,28.3 µM,1.14 µM,5.49 µM,2.98 µM,7.59 µM,1.79 µM,6.96 µM
CC1(C)CCCC(C)(C2CCC3(C)C2C(O)CC2C4(C)CCC(O)C(C)(C)C4C(O)CC23C)O1 (stereo not drawn),,28.1 µM,,24.5 µM,,32.5 µM,,27.9 µM,,5.44 µM,,,,30.8 µM,,41.6 µM,,28.1 µM,,27.5 µM
COC1=C(Br)C(O)C2(C=C1Br)CC(C(=O)NCCCCNC(=O)C1=NOC3(C=C(Br)C(OC)=C(Br)C3O)C1)=NO2 (stereo not drawn),,> 100 µM,,75.1 µM,,,,> 100 µM,,47.4 µM,,79 µM,,46.9 µM,,> 100 µM,,52.8 µM,,> 100 µM
O=C(O)C1C2C=CC(C2)C1C(=O)O (stereo not drawn),> 100 µM,> 100 µM,> 100 µM,> 100 µM,,,> 100 µM,> 100 µM,> 100 µM,> 100 µM,> 100 µM,> 100 µM,> 100 µM,> 100 µM,> 100 µM,> 100 µM,> 100 µM,> 100 µM,> 100 µM,> 100 µM
CCCCCCCCCCC/C=C\C[C@H](O)C/C=C1/C(=O)C=C[C@@H]1C/C=C\CCCC(=O)OC,7.68 µM,13.6 µM,1.23 µM,4.9 µM,0.766 µM,2.04 µM,1.24 µM,4.01 µM,0.835 µM,2.68 µM,1.01 µM,3.51 µM,0.986 µM,6.1 µM,1.09 µM,4.05 µM,,,0.553 µM,1.33 µM
COc1cccc(-n2cc(-c3nc(Nc4cc(C)[nH]n4)c4ccccc4n3)nn2)c1,0.291 µM,7.08 µM,0.261 µM,7.04 µM,,,5.86 µM,13.3 µM,2.85 µM,14.5 µM,1.64 µM,8.4 µM,2.6 µM,16.5 µM,5.22 µM,14.9 µM,7.75 µM,15 µM,2.86 µM,11.3 µM
